Experimental findings from patent US11957759B1, “Rapidly accelerated fibrosarcoma (RAF) degrading compounds and associated methods of use” (Arvinas Operations, Inc., priority 2022, dated 2024) are described below.

For assay [1], the target named is T1, B-RAF V600E (Homo sapiens, UniProt P15056, V600E).
T1 construct: expressed in transfected cells; host or cells: T-Rex 293 cells (Invitrogen #R71007)
The assay can be described thus: Target protein degradation, assay C: T-Rex 293 cells, HA-BRAF_V600E, 384 well format. Type of assay: cell-based. The settings on record: T-Rex 293 HA-BRAF_V600E cells, 24 hours, Examples 83-269; for DC50: Assay C; for Dmax: T-REx-293, Assay C. The procedure:
C. T-Rex 293 Cells (384 Well Format)
(§1) T-Rex 293 cells were purchased from Invitrogen (#R71007), and stably transfected with a pcDNA4/TO_HA-BRAF_V600E construct, using 400 ug Zeocin for selection. V600E cells are plated in DMEM media (Gibco #11965118) containing 10% FBS (Gibco #16000044), 1% penicillin-streptomycin (ThermoFisher #15140122), 1:250 zeocin (Invitrogen #R-25005), and 1 ng/mL doxycycline (Selleckchem #4163) at a density of 7,500 cells/well in 45 μl on PDL coated, black clear bottom 384 well plates (Corning #354663) and incubated at 37° C.+5% CO2 for 24 hours. The following day, PROTAC compounds in a 1:3 11 point dilution are diluted into DMEM media using an Agilent Bravo. 5 ul of PROTACs suspended in DMEM media are added to the cells, with a final assay concentration ranging from 300 nM to 5 pM in 0.5% DMSO. Plates are incubated at 37° C.+5% CO2 for 24 hours. At the end of treatment, media is aspirated, and cells are fixed in 50 uL 4% PFA (EMS #15710) in PBS++(PBS, 1 mM CaCl, 1 mM MgCl) at RT for 15 minutes. Cells are washed 2× with 60 uL PBS++ and permeabilized in 50 uL 1% Triton X-100 (Sigma #93443) in PBS++ for 5 minutes at RT. Cells are washed in PBS++ prior to blocking with 50 uL Licor blocking buffer (Licor #927-60001) for 1 hour at RT. HA-tagged BRAF was stained using 50 uL HA antibody (CST #3724) at 1:1000 in Licor blocking buffer for two hours at RT. Primary is aspirated before adding 50 ul of secondary antibody solution containing 1:1000 Hoechst (ThermoFisher #62249), 1:1000 HCS CellMask Deep Red Stain (ThermoFisher #H32721), and 1:5000 goat anti-rabbit IgG Alexa-Fluor 488 (ThermoFisher #A32731) in PBS++ for 1 hr at RT. Plates are washed 4× with 60 uL PBS++, then sealed with Adhesive Black Light Absorbing Film (VWR #89087-692) and imaged on the ThermoFisher CX7 PRO high content instrument. BRAF intensity is quantified in HCS Studio software (ThermoFisher), using a custom script, exported, analyzed using KNIME, and curve curation is performed in an ELN (Scilligence). Cell toxicity is measured via comparing number of nuclei in PROTAC treated wells to DMSO controls.
(§2) The concentration of an exemplary compound that leads to half maximal degradation (DC50) as well as the maximum degradation observed (Dmax, conventionally expressed as a percentage of control) is shown below in Table 2.

Assay [2] concerns the target T2, B-RAF G466V (Homo sapiens, UniProt P15056, G466V).
T2 construct: expressed in transfected cells; host or cells: T-Rex 293 cells (Invitrogen #R71007)
The experiment in a line: Target protein degradation, assay D: T-Rex 293 cells, HA-BRAF_G466V, 384 well format. It counts as cell-based. The settings on record: T-Rex 293 HA-BRAF_G466V cells, 24 hours, Examples 83-269; for DC50: Assay D; for Dmax: T-REx-293, Assay D. The procedure: D. T-Rex 293 Cells (384 Well Format)
as §1, with “pcDNA4/TO_HA-BRAF_G466V” for “pcDNA4/TO_HA-BRAF_V600E”, “G466V” for “V600E”
as §2

Where only a bound is given, the exact number is not on record here.

T1 sequence (P15056 whole entry V600E): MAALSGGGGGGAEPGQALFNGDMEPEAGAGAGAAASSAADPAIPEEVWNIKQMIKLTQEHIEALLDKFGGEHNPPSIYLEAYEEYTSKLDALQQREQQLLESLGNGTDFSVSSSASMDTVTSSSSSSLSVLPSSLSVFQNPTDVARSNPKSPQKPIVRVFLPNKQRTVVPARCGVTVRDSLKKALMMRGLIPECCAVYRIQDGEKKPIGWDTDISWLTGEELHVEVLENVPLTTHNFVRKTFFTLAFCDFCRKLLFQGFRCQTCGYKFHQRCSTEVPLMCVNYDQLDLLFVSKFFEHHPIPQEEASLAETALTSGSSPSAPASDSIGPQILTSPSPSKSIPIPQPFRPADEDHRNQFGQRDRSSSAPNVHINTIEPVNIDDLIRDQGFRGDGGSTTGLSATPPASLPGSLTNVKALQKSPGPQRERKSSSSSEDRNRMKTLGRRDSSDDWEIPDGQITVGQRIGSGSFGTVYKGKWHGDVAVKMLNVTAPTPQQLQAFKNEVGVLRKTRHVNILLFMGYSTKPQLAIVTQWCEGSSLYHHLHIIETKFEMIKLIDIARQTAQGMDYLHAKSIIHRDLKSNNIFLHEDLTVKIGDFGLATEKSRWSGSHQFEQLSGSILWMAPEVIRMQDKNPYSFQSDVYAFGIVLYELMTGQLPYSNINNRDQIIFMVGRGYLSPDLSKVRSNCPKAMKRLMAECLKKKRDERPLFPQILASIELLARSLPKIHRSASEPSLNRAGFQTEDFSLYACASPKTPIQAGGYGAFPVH
T2 sequence (P15056 whole entry G466V): as the sequence (P15056 whole entry V600E) above, with G466V, E600V counted along it

As usually defined, the DC50 is the midpoint of the concentration-degradation curve. Lower therefore signals a more potent degrader. Usually Dmax stands for the largest share of the target that was removed. High values mean deep degradation, low ones shallow degradation. On to `N#Cc1c(NS(=O)(=O)N2CC[C@@H](F)C2)ccc(F)c1Oc1ccc2ncn(-c3ccc(N4CCC(CN5CC6(C5)CN(c5ccc7c(c5)CN(C5CCC(=O)NC5=O)C7=O)C6)CC4)cc3)c(=O)c2c1` (stereo partly drawn) [Example 85, (3R)-N-{2-cyano-3-[(3-{4-[4-({6-[2-(2,6-dioxopiperidin-3-yl)-1-oxo-2,3-dihydro-1H-isoindol-5-yl]-2,6-diazaspiro[3.3]heptan-2-yl}methyl)piperidin-1-yl]phenyl}-4-oxo-3,4-dihydroquinazolin-6-yl)oxy]-4-fluorophenyl}-3-fluoropyrrolidine-1-sulfonamide], for which the DC50 in assay [1] is 5 to 50 nM; in assay [2], 1 to 10 nM. Besides, the Dmax in assay [1] and in assay [2] was 35 to 70% each time.

Consider `Cc1cc(N2CC(CN3CCN(c4ccc(-n5cnc6ccc(Oc7c(F)ccc(NS(=O)(=O)N8CC[C@@H](F)C8)c7C#N)cc6c5=O)cc4)CC3)C2)cc2c1C(=O)N([C@@H]1CCC(=O)NC1=O)C2` [Example 235, (3R)-N-(2-cyano-3-{[3-(4-{4-[(1-{2-[(3R)-2,6-dioxopiperidin-3-yl]-7-methyl-1-oxo-2,3-dihydro-1H-isoindol-5-yl}azetidin-3-yl)methyl]piperazin-1-yl}phenyl)-4-oxo-3,4-dihydroquinazolin-6-yl]oxy}-4-fluorophenyl)-3-fluoropyrrolidine-1-sulfonamide], for which, in assay [1], the DC50 is 50 to 500 nM and the maximal degradation (Dmax) lay within 35 to 70%. Also, in assay [2], the DC50 is 1 to 10 nM and the Dmax lay within 35 to 70%.

In assay [1], `N#Cc1c(NS(=O)(=O)N2CC[C@@H](F)C2)ccc(F)c1Oc1ccc2ncn(-c3ccc(N4CCC(CN5CCC(c6ccc([C@H]7CCC(=O)NC7=O)cc6F)CC5)CC4)cc3)c(=O)c2c1` [Example 187, (3R)-N-(2-cyano-3-{[3-(4-{4-[(4-{4-[(3R)-2,6-dioxopiperidin-3-yl]-2-fluorophenyl}piperidin-1-yl)methyl]piperidin-1-yl}phenyl)-4-oxo-3,4-dihydroquinazolin-6-yl]oxy}-4-fluorophenyl)-3-fluoropyrrolidine-1-sulfonamide] yielded a DC50 of 50 to 500 nM and a Dmax not below 70%. In assay [2], the half-maximal degradation concentration (DC50) lay in the range of 1 to 10 nM and the maximal degradation (Dmax) is not above 35%.

Turning to `N#Cc1c(NS(=O)(=O)N2CC[C@@H](F)C2)ccc(F)c1Oc1ccc2ncn(-c3ccc(C4CCN(CC5CC6(CCN(c7ccc8c(c7)CN([C@H]7CCC(=O)NC7=O)C8=O)CC6)C5)C4)cc3)c(=O)c2c1` (stereo partly drawn) [Example 263, (3R)-N-(2-cyano-3-{[3-(4-{1-[(7-{2-[(3S)-2,6-dioxopiperidin-3-yl]-1-oxo-2,3-dihydro-1H-isoindol-5-yl}-7-azaspiro[3.5]nonan-2-yl)methyl]pyrrolidin-3-yl}phenyl)-4-oxo-3,4-dihydroquinazolin-6-yl]oxy}-4-fluorophenyl)-3-fluoropyrrolidine-1-sulfonamide], the DC50 in assay [1] lay in the range of 50 to 500 nM; in assay [2], 1 to 10 nM. For the same compound, the Dmax in assay [1] and in assay [2] was not below 70% throughout.

Consider `N#Cc1c(NS(=O)(=O)N2CC[C@@H](F)C2)ccc(F)c1Oc1ccc2ncn(-c3ccc(N4CCC(CN5CC6(CCC(c7ccc8c(c7)CN(C7CCC(=O)NC7=O)C8=O)CC6)C5)C4)cc3)c(=O)c2c1` (single isomer, unassigned) [Example 260, (3R)-N-(2-cyano-3-{[3-(4-{3-[(7-{2-[(3R*)-2,6-dioxopiperidin-3-yl]-1-oxo-2,3-dihydro-1H-isoindol-5-yl}-2-azaspiro[3.5]nonan-2-yl)methyl]pyrrolidin-1-yl}phenyl)-4-oxo-3,4-dihydroquinazolin-6-yl]oxy}-4-fluorophenyl)-3-fluoropyrrolidine-1-sulfonamide], for which the 50% degradation concentration (DC50) in assay [1] fell in the range of 50 to 500 nM; in assay [2], 1 to 10 nM. In addition, the Dmax is 35 to 70% in assay [1] and not below 70% in assay [2].
